In US10246442B2, “4-Aminoquinazolin compounds as prolyl hydroxylase inhibitors” (JANSSEN PHARMACEUTICA NV, priority 2011, dated 2019):

Key:
PHD2181-417 = PHD2181-417 (Homo sapiens (Human), UniProt Q9GZT9); test: PHD enzymatic assay ([14C]-succinic acid production); assay type: biochemical; conditions: purified PHD2181-417, HIF-1α peptide substrate, 30 min pre-incubation; average of results
Protocol: Expression and Purification of PHD2181-417
The human PHD2 expression construct containing amino acids 181-417 of GenBank Accession ID NM_022051 was cloned into a pBAD vector (Invitrogen), incorporating both an N-terminal histidine tag and a Smt3-tag, both of which are cleaved by Ulp1. Protein production was achieved by expression in BL21 cells grown in Terrific Broth containing 100 μg/ml ampicillin. Cell cultures were inoculated at 37° C. and grown to an OD600 of 0.8. Cultures were induced with 0.1% arabinose and grown overnight at 20° C. with continuous shaking at 225 rpm. Cells were then harvested by centrifugation and stored at −80° C. Cell pellets were suspended in Buffer A (50 mM Tris-HCl pH 7.2, 100 mM NaCl, 100 mM L-arginine, 1 mM TCEP, 0.05% (w/v) NP-40, 50 mM imidazole) followed by the addition of lysozyme and benzonase. Cells were lysed by sonication and the lysate was cleared by centrifugation (15,000 rpm, 90 min, 4° C.). The protein was purified by nickel affinity chromatography using a HisTrap Crude FF column (GE Healthcare). Samples were eluted in Buffer A with a 50-200 mM imidazole gradient. Cleavage of the Smt tag with Ulp1 protease was achieved via overnight incubation with dialyzing against Buffer A. The PHD2181-417 sample was then passed over a second HisTrap Crude FF column (GE Healthcare) to remove uncleaved protein. The flow-through was then dialyzed into 50 mM MES pH 6.0, 1 mM TCEP, 5 mM NaCl for ion exchange chromatography on a HiTrap SP Cation Exchange column (GE Healthcare). The PHD2181-417 protein was eluted with a 0-0.2 M NaCl gradient. Fractions were pooled for further purification by size exclusion chromatography over a Superdex 75 Size Exclusion Column (GE Healthcare). Final protein was concentrated to 4 mg/ml and dialyzed in 10 mM PIPES pH 7.0, 100 mM NaCl, 0.5 mM TCEP.
(10 μM, California Peptide Research Inc., Napa, Calif.), and [5-^14C]-2-oxoglutaric acid (50 mCi/mmol, Moravek Chemicals, Brea, Calif.) in reaction buffer (40 mM Tris-HCl, pH 7.5, 0.4 mg/ml catalase, 0.5 mM DTT, 1 mM ascorbate) for 10 minutes. Compounds were pre-incubated for 30 min before starting the reaction (all test compounds were dissolved at 10 mM in 100% DMSO (w/v) and were tested with final compound concentrations at 100 μM in 1% DMSO (w/v)). The reaction was stopped by addition of 50 μl of 70 mM H3PO4 and 50 μl of 500 mM NaH2PO4, pH 3.2. Detection of [^14C]-succinic acid was achieved by separating from [5-^14C]-2-oxoglutaric acid by incubating the reaction mixture with 100 μl of 0.16 M DNP prepared in 30% perchloric acid. Next, 50 μl of unlabeled 20 mM 2-oxoglutaric acid/20 mM succinic acid, serving as carrier for the radioactivity, was added to the mixture, and was allowed to proceed for 30 minutes at room temperature. The reaction was then incubated with 50 μl of 1 M 2-oxoglutaric acid for 30 additional minutes at room temperature to precipitate the excess DNP. The reaction was then centrifuged at 2800×g for 10 minutes at room temperature to separate [^14C]-succinic acid in the supernatant from the precipitated [^14C]-dinitrophenylhydrazone. Fractions of the supernatant (400 μI) were counted using a beta counter (Beckman Coulter, Fullerton, Calif.). Inhibition of PHD2181-417 activity was measured as a decrease in succinic acid production. The IC50 values were estimated by fitting the data to a three-parameter logistic function using GraphPad Prism, version 4.02 (Graph Pad Software, San Diego, Calif.).

[1] = system: Erythropoietin secretion, Hep-3B cells; test: Cellular assay: EPO secretion in Hep-3B cells; assay type: cell-based; conditions: Homo sapiens, Hep3B, 100 μM compound, 24 hours, percent of EPO secretion relative to assay control compound 7-[(4-Chloro-phenyl)-(5-methyl-isoxazol-3-ylamino)-methyl]-quinolin-8-ol, read-out: Cellular % EPO Stimulation
Protocol: Hep-3B cells (ATCC, Manassas, Va.) were plated in 96-well plates at 20,000 cells per well in 100 μl of DMEM containing 10% fetal bovine serum, 1% non-essential amino acids, 50 IU/mL of penicillin and 50 μg/mL of streptomycin (all cell culture reagents from Invitrogen, Carlsbad, Calif.). Twenty-four hours after plating, compounds were added and incubated for an additional 24 hours. All compounds were tested with final compound concentrations at 100 μM. Fifty microliters of the supernatant was then transferred to a human Hypoxia assay kit (Meso-Scale Discovery, Gaithersburg, Md.). Erythropoietin in the supernatant was detected according to the manufacturer's instructions as follows. EPO detection plates were blocked with 3% BSA in PBS overnight and 50 μl of the supernatant was incubated at room temperature in an orbital shaker for 2 h. Twenty-five microliters of 0.5 μg/ml anti-EPO detection antibody was added for 2 hours at room temperature in an orbital shaker. After 3 washes in PBS, 150 μl of 1× read buffer is added and the plate is then read on the MSD SECTOR instrument. Data was analyzed by determining the percent of EPO secretion in the presence of 100 μM compound relative to an assay control compound, 7-[(4-Chloro-phenyl)-(5-methyl-isoxazol-3-ylamino)-methyl]-quinolin-8-ol.

PHD2181-417, sequence (Q9GZT9 181-417): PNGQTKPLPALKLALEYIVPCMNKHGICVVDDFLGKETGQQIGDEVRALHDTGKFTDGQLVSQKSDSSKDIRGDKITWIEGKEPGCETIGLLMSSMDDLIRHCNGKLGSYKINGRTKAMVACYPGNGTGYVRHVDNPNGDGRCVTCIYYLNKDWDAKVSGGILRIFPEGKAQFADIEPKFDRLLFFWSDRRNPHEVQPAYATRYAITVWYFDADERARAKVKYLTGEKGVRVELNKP

SMILES	Enzyme pIC50 (PHD2181-417)	activation at 100 µM [1] [%]
CC(C)c1cc2c(N3CCOCC3)nc(-n3cc(C(=O)O)cn3)nc2cc1Cl [Example 160, 1-(7-chloro-6-isopropyl-4-morpholinoquinazolin-2-yl)-1H-pyrazole-4-carboxylic acid]	6.8	28
Cc1cccc(C)c1Oc1cc2c(N(C)C)nc(-n3cc(C(=O)O)cn3)nc2cc1F [Example 3, 1-[4-Dimethylamino-6-(2,6-dimethyl-phenoxy)-7-fluoro-quinazolin-2-yl]-1H-pyrazole-4-carboxylic acid]	–	68
Cc1cccc(C)c1CNc1nc(-n2cc(C(=O)O)cn2)nc2ccc(C3CCCCC3)cc12 [Example 23, 1-[6-Cyclohexyl-4-(2,6-dimethyl-benzylamino)-quinazolin-2-yl]-1H-pyrazole-4-carboxylic acid]	–	7
Nc1nc(-n2cc(C(=O)O)cn2)nc2ccc(C3CCCCC3)cc12 [Example 24, 1-(4-Amino-6-cyclohexylquinazolin-2-yl)-1H-pyrazole-4-carboxylic acid]	7.5	36
N#CC1CCN(c2nc(-n3cc(C(=O)O)cn3)nc3ccc(Oc4ccc(Cl)cc4)cc23)CC1 [Example 65, 1-(6-(4-Chlorophenoxy)-4-(4-cyanopiperidin-1-yl)quinazolin-2-yl)-1H-pyrazole-4-carboxylic acid]	7.4	77
O=C(O)c1cnn(-c2nc(N3CCCC3)c3cc(OC4CCCCC4)ccc3n2)c1 [Example 175, 1-(6-(cyclohexyloxy)-4-(pyrrolidin-1-yl)quinazolin-2-yl)-1H-pyrazole-4-carboxylic acid]	–	46
Cc1cccc(C)c1Oc1cc2c(N)nc(-n3cc(C(=O)O)cn3)nc2cc1F [Example 1, 1-[4-Amino-6-(2,6-dimethyl-phenoxy)-7-fluoro-quinazolin-2-yl]-1H-pyrazole-4-carboxylic acid]	–	51
CCN(CC)c1nc(-n2cc(C(=O)O)cn2)nc2ccc(Cc3ccccc3)cc12 [Example 180, 1-(6-benzyl-4-(diethylamino)quinazolin-2-yl)-1H-pyrazole-4-carboxylic acid]	7.1	–
O=C(O)c1cnn(-c2nc(N3CCCC3)c3cc(OC4CCCCC4)c(Cl)cc3n2)c1 [Example 139, 1-(7-chloro-6-(cyclohexyloxy)-4-(pyrrolidin-1-yl)quinazolin-2-yl)-1H-pyrazole-4-carboxylic acid]	7.1	–
O=C(O)c1cnn(-c2nc(N3CCOCC3)c3cc(Cc4ccccc4)ccc3n2)c1 [Example 178, 1-(6-benzyl-4-morpholinoquinazolin-2-yl)-1H-pyrazole-4-carboxylic acid]	6.5	–
CCN(CC)c1nc(-n2cc(C(=O)O)cn2)nc2cc(Cl)c(OC3CCCCC3)cc12 [Example 138, 1-(7-chloro-6-(cyclohexyloxy)-4-(diethylamino)quinazolin-2-yl)-1H-pyrazole-4-carboxylic acid]	7.5	–
CCN(C)c1nc(-n2cc(C(=O)O)cn2)nc2ccc(Cc3ccccc3)cc12 [Example 183, 1-(6-benzyl-4-(ethyl(methyl)amino)quinazolin-2-yl)-1H-pyrazole-4-carboxylic acid]	7.2	–
Cc1cccc(C)c1Oc1cc2c(NCC3CC3)nc(-n3cc(C(=O)O)cn3)nc2cc1F [Example 15, 1-((4-Cyclopropanemethylamino)-6-(2,6-dimethylphenoxy)-7-fluoroquinazolin-2-yl)-1H-pyrazole-4-carboxylic acid]	–	64
Cc1cccc(C)c1Oc1cc2c(Nc3ccccc3Cl)nc(-n3cc(C(=O)O)cn3)nc2cc1F [Example 7, 1-[4-(2-Chloro-phenylamino)-6-(2,6-dimethyl-phenoxy)-7-fluoro-quinazolin-2-yl]-1H-pyrazole-4-carboxylic acid]	–	13
CCN(CC)c1nc(-n2cc(C(=O)O)cn2)nc2ccc(OC3CCCCC3)cc12 [Example 174, 1-(6-(cyclohexyloxy)-4-(diethylamino)quinazolin-2-yl)-1H-pyrazole-4-carboxylic acid]	–	35

More lines, main results first:

Enzyme pIC50 (PHD2181-417)	SMILES	activation at 100 µM [1] [%]
7.1	Cc1cccc(C)c1Oc1cc2c(NC3CC3)nc(-n3cc(C(=O)O)cn3)nc2cc1F [Example 14, 1-((4-Cyclopropylamino)-6-(2,6-dimethylphenoxy)-7-fluoroquinazolin-2-yl)-1H-pyrazole-4-carboxylic acid]	86
7.1	CCCCN(CCCC)c1nc(-n2cc(C(=O)O)cn2)nc2cc(F)c(Oc3c(C)cccc3C)cc12 [Example 11, 1-[6-(2,6-Dimethyl-phenoxy)-4-dibutylamino-7-fluoro-quinazolin-2-yl]-1H-pyrazole-4-carboxylic acid]	9
7.2	CCCNc1nc(-n2cc(C(=O)O)cn2)nc2cc(F)c(Oc3c(C)cccc3C)cc12 [Example 8, 1-[6-(2,6-Dimethyl-phenoxy)-7-fluoro-4-propylamino-quinazolin-2-yl]-1H-pyrazole-4-carboxylic acid]	59
7.3	O=C(O)c1cnn(-c2nc(N3CCCC3)c3cc(OC4CCCCC4)c(F)cc3n2)c1 [Example 103, 1-(7-fluoro-6-(cyclohexyloxy)-4-(pyrrolidin-1-yl)quinazolin-2-yl)-1H-pyrazole-4-carboxylic acid]	31
7.1	CN(C)c1nc(-n2cc(C(=O)O)cn2)nc2ccc(Cc3ccccc3)cc12 [Example 179, 1-(6-benzyl-4-(dimethylamino)quinazolin-2-yl)-1H-pyrazole-4-carboxylic acid]	–
7.1	O=C(O)c1cnn(-c2nc(NC3CC3)c3cc(Cc4ccccc4)ccc3n2)c1 [Example 182, 1-(6-benzyl-4-(cyclopropylamino)quinazolin-2-yl)-1H-pyrazole-4-carboxylic acid]	–
7.0	O=C(O)c1cnn(-c2nc(NC3CC3)c3cc(OC4CCCCC4)c(Cl)cc3n2)c1 [Example 141, 1-(7-chloro-6-(cyclohexyloxy)-4-(cyclopropylamino)quinazolin-2-yl)-1H-pyrazole-4-carboxylic acid]	–
7.1	O=C(O)c1cnn(-c2nc(N3CCCC3)c3cc(Cc4ccccc4)ccc3n2)c1 [Example 181, 1-(6-benzyl-4-(pyrrolidin-1-yl)quinazolin-2-yl)-1H-pyrazole-4-carboxylic acid]	–
